# Legend:
# HeLa cells = experiment: Pro-inflammatory cytokine release from THP-1 after exposure to compound-treated HeLa cells (ELISA); format: cell-based, human; conditions: for TNF-α secretion / immunostimulatory activity: HeLa cells treated with compound, FIG. 1
# Method: The human cervical epithelium cell line HeLa and the mouse B16-F10 melanoma were purchased from American TCC and maintained in Dulbecco's modified eagle's media [D-MEM (Cellgro®, Herndon Va.)] supplemented with 10% fetal bovine serum (Sigma-Aldrich, St. Louis, Mo.). All cell stress/death-related treatments described below were performed using HeLa cells in initial screens. The human promonocytic leukemia THP-1 (ATCC, Manassas Va.) and pro-macrophage MonoMac6 cells were utilized as the reporter antigen presenting cells utilized in this study. Ziegler-Heitbrock et al., “Establishment of a human cell line (Mono Mac 6) with characteristics of mature monocytes” Int. J. Cancer 41:456-461 (1988). Both lines were maintained in RPMI-1640 media (Cellgro®) supplemented with 10% fetal bovine serum. Unless otherwise noted, all cells were maintained at 37° C. in a humidified incubator supplemented with 5% CO2.
# The following list includes the small molecule compounds evaluated in this study: thapsigargin, thapsigargicin (MP Biomedicals, Irvine Calif.), 1,2-bis(o-aminophenoxy)ethane-N,N,N′,N′-tetraacetic Acid Tetra(acetoxymethyl) ester [BAPTA-AM, (EMD Biosciences, San Diego, Calif.)], ethyleneglycol-bis(β-aminoethyl)-N,N,N′,N′-tetraacetoxymethyl ester [EGTA-AM (EMD Biosciences)], 1,2-bis(2-aminophenoxy)ethane-N,N,N′,N′-tetraacetic acid […], tetrandrine, KCl, Amyloid peptide Aβ1-42, 1-Oleoyl-2-acetyl-sn-glycerol (OAG), calcimycin A23187, 2-aminoethyl diphenylborinate (2-APB), histamine, cyclopiazonic acid, 2,5-di-(t-butyl)-1,4-hydroquinone [BHQ (EMD Biosciences)], GdCl3, nicardipine hydrochloride, 1-(o-chloro-α,αdiphenylbenzyl)imidazole (clotrimazole), apamin, charybdotoxin, radicicol, brefeldin A, tunicamycin, tamoxifen, ionomycin, staurosporine, cis-diammineplatinum(II) dichloride (cisplatin), paclitaxel, methotrexate, cycloheximide, and rapamycin. Unless otherwise noted, all compounds were purchased from Sigma-Aldrich. Compounds were dissolved per manufacturer's recommendations prior to addition to HeLa cells in a range of concentrations based on the published literature and incubated between 1 minute to two days. The known mediators of inflammation pam3cys-ser-(lys)4, hydrochloride (Pam3Cys), bacterial flagellin, and lipopolysaccharide were purchased from EMD Biosciences.
# Following cell stress/death, resulting cells/cell debris were collected, washed 3 times with excess phosphate-buffered saline, rapidly cycled through freeze/thaw (−80° C. to 25° C.) three times, and quantified by UV spectrophotometry (A280). To determine the presence of pro-inflammatory signals within stressed/dead cells, 40 μg of stressed/dead cell were added to 50,000 THP-1 and incubated for 18 hours. Supernatants were assessed for the presence of pro-inflammatory cytokines including tumor necrosis factor-α (TNF-α), interleukin 8 (IL-8), and IL-12 using commercially available ELISA systems.
# A variety of different potential cell stress and cell death inducing agents were screened. […] (See FIG. 1).
# [1] = system: NF-κB promoter (MonoMac-6 Clone C5); experiment: NF-κB promoter luciferase reporter, MonoMac-6 Clone C5; format: cell-based, human; conditions: FIG. 11
# From the text: A stably transfected DNA construct encoding a NF-κB promoter driving firefly luciferase expression was integrated into: i) human pre-monocytic cell line THP-1; and ii) human premonocytic cell line MonoMac-6. Briefly, DNA encoding a concatemerized NF-κB response element upstream of the firefly luciferase gene [Ting et al., “RIP mediates tumor necrosis factor receptor 1 activation of NF-kappaB but not Fas/APO-1-initiated apoptosis” EMBO J. November 15; 15(22):6189-96(1996)] was subcloned into the pEAK8 vector backbone (Edge Biosystems, Gaithersburg Md.) by standard molecular biology techniques. Electroporations were performed using 10 μg of DNA and 700,000 THP-1 or MonoMac6 cells using a Biorad Gene Pulser II electroporator (Biorad, Hercules Calif.), 0.4 cm electrocuvettes, and 200 V, 950 μF. Following electroporation, cells were allowed to recover for two days prior to selection with 300 ng/ml puromycin aminonucleoside (Sigma-Aldrich) for the generation of stably transfected clones. Luciferase expression was quantified using a Top Count NXT luminometer (Perkin Elmer, Wellesley Mass.). Briefly, 50,000 reporter cells were incubated with indicated concentrations of the mediators of inflammation listed for 18 hours in 96-well white plates prior to harvest and analysis.
# A second stable NF-κB reporter construct transfectant was created using MonoMac-6 cells. […]
# [2] = system: Ca(2+)-ATPase from sarcoplasmic and endoplasmic reticula; conditions: activity not further specified; context Ca(2+)-ATPase inhibitory potency; cited from earlier work
# [3] = system: NF-κB promoter (THP-1 Clone A9); experiment: NF-κB promoter luciferase reporter, THP-1 Clone A9; format: cell-based, human; conditions: 50,000 reporter cells, 18 hours; FIG. 10
# From the text: A stably transfected DNA construct encoding a NF-κB promoter driving firefly luciferase expression was integrated into: i) human pre-monocytic cell line THP-1; and ii) human premonocytic cell line MonoMac-6. Briefly, DNA encoding a concatemerized NF-κB response element upstream of the firefly luciferase gene [Ting et al., “RIP mediates tumor necrosis factor receptor 1 activation of NF-kappaB but not Fas/APO-1-initiated apoptosis” EMBO J. November 15; 15(22):6189-96(1996)] was subcloned into the pEAK8 vector backbone (Edge Biosystems, Gaithersburg Md.) by standard molecular biology techniques. Electroporations were performed using 10 μg of DNA and 700,000 THP-1 or MonoMac6 cells using a Biorad Gene Pulser II electroporator (Biorad, Hercules Calif.), 0.4 cm electrocuvettes, and 200 V, 950 μF. […] Luciferase expression was quantified using a Top Count NXT luminometer (Perkin Elmer, Wellesley Mass.). […]
# The THP-1-derived clone A9 recognition of the TLR ligands Pam-3-Cys (signaling through TLR2) and bacterial flagellin (signaling through TLR5), but not bacterial lipopolysaccharide (signaling through TLR4) was determined by monitoring NF-κB activity in 96-well white plate automated assays during TG incubation. […]
compound,measurement,setting,value
tunicamycin,TNF-α secretion / immunostimulatory activity,HeLa cells,did not induce immunostimulatory activity
bacterial lipopolysaccharide,"recognition (NF-κB activity, luciferase)",[1],improved recognition
"C[C@H]1CCC/C=C/[C@@H]2C[C@H](O)C[C@H]2[C@H](O)/C=C/C(=O)O1 [brefledin A, brefeldin A]",TNF-α secretion / immunostimulatory activity,HeLa cells,did not induce immunostimulatory activity
"CNc1ccc2oc(C[C@H]3O[C@@]4(CC[C@H]3C)O[C@H]([C@H](C)C(=O)c3ccc[nH]3)[C@H](C)C[C@H]4C)nc2c1C(=O)O [calcimycin, calcimycin A23187]",TNF-α secretion / immunostimulatory activity,HeLa cells,did not induce immunostimulatory activity
C[C@@H]1C[C@@H]([C@H](O)CC2CC(=O)NC(=O)C2)C(=O)[C@@H](C)C1 [cycloheximide],TNF-α secretion / immunostimulatory activity,HeLa cells,did not induce immunostimulatory activity
"CC(=O)O[C@H]1C(=O)[C@@]2(C)[C@H]([C@H](OC(=O)c3ccccc3)[C@]3(O)C[C@H](OC(=O)[C@H](O)[C@@H](NC(=O)c4ccccc4)c4ccccc4)C(C)=C1C3(C)C)[C@]1(OC(C)=O)CO[C@@H]1C[C@@H]2O [Taxol®, paclitaxel]",TNF-α secretion / immunostimulatory activity,HeLa cells,did not induce immunostimulatory activity
C/C=C(/C)C(=O)O[C@H]1C(C)=C2[C@H]([C@@H]1OC(=O)CCCCC)[C@@](C)(OC(C)=O)C[C@H](OC(=O)CCC)[C@@]1(O)[C@H]2OC(=O)[C@@]1(C)O [Thapsigargicin],secretion of IL-8 from THP-1,"HeLa cells; treated HeLa cells, monocyte cell line THP-1, FIG. 2",activated a dose-dependent secretion of IL-8
C/C=C(/C)C(=O)O[C@@H]1C[C@H]2[C@@H]([C@H]1C)[C@@H]1OC(=O)[C@@](C)(O)[C@@]1(O)C(OC(=O)[C@@H](C)CC)C[C@]2(C)OC(C)=O (stereo partly shown) [compound 77],activity of synthetic thapsigargin analogue,[2],potent activity
"pam3cys-ser-(lys)4, hydrochloride","recognition (NF-κB activity, luciferase)",[3],recognition
same,"recognition (NF-κB activity, luciferase)",[1],recognized

# From patent publication US9885704B2, “Reagents and methods for cancer treatment and prevention” (priority 2006, dated 2018)
